The values that follow come from PubChem BioAssay (NCI).

Test systems include HCC-2998 colon; HCT-116 colon; HL-60(TB) leukemia; LOX IMVI melanoma; NCI/ADR-RES ovarian; OVCAR-4 ovarian; PC-3 prostate; RPMI-8226 leukemia; SK-MEL-5 melanoma; SNB-19 CNS; SW-620 colon; U251 CNS; UACC-62 melanoma; UO-31 renal.
Test in all cases: NCI anticancer screen, dose series, 48 h

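Five concentrations, 48 hours, 96-well plates. The concentration for full growth arrest is given as TGI.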

On to `O=C(O)CCC(=O)c1ccc2c(c1)C(C(=O)O)CC2` (centres undefined), for which the TGI is greater than 100 µM with HCC-2998 colon; 2.25 µM with HCT-116 colon; greater than 100 µM with HL-60(TB) leukemia; greater than 100 µM in the test with LOX IMVI melanoma; greater than 100 µM in the test on NCI/ADR-RES ovarian; greater than 100 µM with OVCAR-4 ovarian. Moreover, the TGI with PC-3 prostate, in the test with RPMI-8226 leukemia, in the test with SK-MEL-5 melanoma, in the test on SNB-19 CNS, in the test with SW-620 colon and in the test with U251 CNS was greater than 100 µM each time. The TGI in the test with UACC-62 melanoma and with UO-31 renal was greater than 100 µM in each case.

For the molecule `Cc1cc2/c(=C\c3ccc(N(C)C)cc3)c3ccccc3n2[n+]1C`, the TGI with HCC-2998 colon was 1 µM; in the test on HCT-116 colon, 2.55 µM; in the test with HL-60(TB) leukemia, 6.44 µM; in the test with LOX IMVI melanoma, 2.59 µM; in the test on NCI/ADR-RES ovarian, greater than 100 µM; in the test on OVCAR-4 ovarian, 10.3 µM. For the same molecule, the TGI in the test on PC-3 prostate is 2.38 µM; with RPMI-8226 leukemia, 0.738 µM; in the test on SK-MEL-5 melanoma it was 1.58 µM; with SNB-19 CNS, 4.52 µM; with SW-620 colon it was greater than 32 µM; with U251 CNS it was 1.78 µM. For the same molecule, the values for the TGI with UACC-62 melanoma and in the test on UO-31 renal were 2.95 µM and 15.3 µM, respectively.

Turning to `O=C(NCCN1CCOCC1)c1cn2c(ccc3sc4ccccc4c(=O)c32)n1`, the TGI with HCC-2998 colon is 54.1 µM; in the test on HCT-116 colon, 29 µM; in the test with HL-60(TB) leukemia it was 36.3 µM; with LOX IMVI melanoma it was 47.4 µM; with NCI/ADR-RES ovarian it was greater than 100 µM; in the test with PC-3 prostate, greater than 100 µM. Besides, the TGI in the test with RPMI-8226 leukemia is 41.2 µM; with SK-MEL-5 melanoma it was 60.6 µM; in the test with SNB-19 CNS it was greater than 100 µM; in the test on SW-620 colon, 25.3 µM; in the test on U251 CNS, 21.6 µM; in the test on UO-31 renal, greater than 100 µM.

Turning to `CCOC(=O)c1[nH]c(-c2[nH]c(-c3[nH]c(-c4[nH]c(C(=O)OCC)c(C)c4C(=O)OCC)c(C(=O)OCC)c3C)c(C)c2C(=O)OCC)c(C(=O)OCC)c1C`, the TGI in the test with HCC-2998 colon, with HCT-116 colon, in the test on HL-60(TB) leukemia, in the test with LOX IMVI melanoma, in the test with NCI/ADR-RES ovarian and with OVCAR-4 ovarian was greater than 100 µM throughout. The TGI in the test on PC-3 prostate, with RPMI-8226 leukemia, with SK-MEL-5 melanoma, with SNB-19 CNS, in the test on SW-620 colon and in the test on U251 CNS was greater than 100 µM in each case. Further, in the test with UACC-62 melanoma, the TGI was greater than 100 µM.

As to `CC(=N\N)/C(C)=N/N=C(C)/C(C)=N/N`, the TGI in the test on HCC-2998 colon, with HCT-116 colon, in the test with HL-60(TB) leukemia, with LOX IMVI melanoma, in the test with NCI/ADR-RES ovarian and in the test with OVCAR-4 ovarian was greater than 100 µM throughout. Besides, the TGI in the test with PC-3 prostate, with RPMI-8226 leukemia, in the test with SK-MEL-5 melanoma, with SNB-19 CNS, in the test on SW-620 colon and in the test on U251 CNS was greater than 100 µM each time. Besides, in the test with UO-31 renal, the TGI is greater than 100 µM.

For the molecule `CCP(=O)(CC)C(Cl)Cl`, the TGI in the test on HCC-2998 colon, in the test on HCT-116 colon, with HL-60(TB) leukemia, with LOX IMVI melanoma, in the test on NCI/ADR-RES ovarian and with OVCAR-4 ovarian was greater than 100 µM each time. Moreover, the TGI with PC-3 prostate, with RPMI-8226 leukemia, with SK-MEL-5 melanoma, with SNB-19 CNS, in the test on SW-620 colon and in the test with U251 CNS was greater than 100 µM each time. Further, the TGI in the test on UO-31 renal was greater than 100 µM.

As to `CN(C)CCNC(=O)c1ccc(NCCCN(C)CCCNc2ccc(C(=O)NCCN(C)C)c3[nH]c4ccccc4c(=O)c23)c2c(=O)c3ccccc3[nH]c12`, the TGI stood at 0.177 µM with HCC-2998 colon; 0.205 µM in the test on HCT-116 colon; 0.659 µM in the test on HL-60(TB) leukemia; 0.179 µM in the test with LOX IMVI melanoma; 16 µM in the test on NCI/ADR-RES ovarian; 0.247 µM with OVCAR-4 ovarian. Besides, the TGI in the test on PC-3 prostate came to 0.331 µM; with RPMI-8226 leukemia it was 0.419 µM; in the test on SK-MEL-5 melanoma, 1.5 µM; with SNB-19 CNS it was 0.419 µM; in the test with U251 CNS it was 0.247 µM; in the test with UACC-62 melanoma, 0.353 µM. For the same molecule, the TGI in the test on UO-31 renal amounted to 1.9 µM.

With `CCCCCCCCCCCCCCCCNC(=O)C(=O)/C=C(\O)c1ccc(C)cc1`, the TGI with HCC-2998 colon, in the test with HL-60(TB) leukemia, in the test with LOX IMVI melanoma, with NCI/ADR-RES ovarian, in the test with OVCAR-4 ovarian and in the test with PC-3 prostate was greater than 10 µM each time. The TGI in the test with RPMI-8226 leukemia, in the test on SK-MEL-5 melanoma, in the test on SW-620 colon, with U251 CNS and with UO-31 renal was greater than 10 µM in each case.

For `CC(=O)OC12C3C4C1C1C2C3C41OC(C)=O` (centres undefined), the TGI in the test with HCC-2998 colon, in the test on HCT-116 colon, with HL-60(TB) leukemia, in the test with LOX IMVI melanoma, with NCI/ADR-RES ovarian and with OVCAR-4 ovarian was greater than 100 µM throughout. The TGI with PC-3 prostate, in the test on RPMI-8226 leukemia, with SK-MEL-5 melanoma, with SW-620 colon, in the test on U251 CNS and in the test on UACC-62 melanoma was greater than 100 µM in each case. Also, the TGI in the test on UO-31 renal was greater than 100 µM.

On to `COc1ccc2nc(-c3ccccc3)cc(OCC(=O)O)c2c1`, for which the TGI with HCC-2998 colon, in the test with HCT-116 colon, in the test on HL-60(TB) leukemia, in the test with LOX IMVI melanoma, in the test on NCI/ADR-RES ovarian and in the test on PC-3 prostate was greater than 100 µM in each case. The TGI with RPMI-8226 leukemia, with SK-MEL-5 melanoma, in the test with SNB-19 CNS, in the test with SW-620 colon, with U251 CNS and in the test on UACC-62 melanoma was greater than 100 µM throughout. Also, the TGI in the test with UO-31 renal amounted to 51.3 µM.
